Read-outs that look alike come from different tables or passages of the source.
Tests used:
[1] = biological target: T1, M1mAChR (Homo sapiens, UniProt P11229); test: cell-based; conditions: for EC50: HEK293T cells
T1 construct: host or cells: HEK-293T
Target sequence in this assay (P50148 whole entry partner, one chain of several): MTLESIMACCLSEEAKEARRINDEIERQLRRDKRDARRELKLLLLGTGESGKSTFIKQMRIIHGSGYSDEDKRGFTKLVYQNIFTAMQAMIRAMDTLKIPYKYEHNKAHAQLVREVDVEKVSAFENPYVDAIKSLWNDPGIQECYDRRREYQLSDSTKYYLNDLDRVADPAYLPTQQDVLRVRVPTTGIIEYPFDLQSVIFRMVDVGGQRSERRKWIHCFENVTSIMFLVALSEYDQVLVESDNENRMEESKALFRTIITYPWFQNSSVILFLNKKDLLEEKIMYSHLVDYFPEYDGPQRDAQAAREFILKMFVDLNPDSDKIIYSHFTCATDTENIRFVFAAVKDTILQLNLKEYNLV
Target sequence in this assay (P62879 2-340 partner limits assumed, one chain of several): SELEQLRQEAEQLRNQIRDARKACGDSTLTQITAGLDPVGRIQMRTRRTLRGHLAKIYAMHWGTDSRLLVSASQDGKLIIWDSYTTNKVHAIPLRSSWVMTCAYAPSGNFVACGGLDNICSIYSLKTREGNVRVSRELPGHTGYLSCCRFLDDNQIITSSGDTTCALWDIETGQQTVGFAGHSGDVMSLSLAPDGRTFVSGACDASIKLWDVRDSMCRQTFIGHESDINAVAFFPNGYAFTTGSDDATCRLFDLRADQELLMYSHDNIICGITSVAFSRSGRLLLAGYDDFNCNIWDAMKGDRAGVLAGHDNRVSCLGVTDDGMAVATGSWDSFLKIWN
Target sequence in this assay (P59768 2-68 partner limits assumed, one chain of several): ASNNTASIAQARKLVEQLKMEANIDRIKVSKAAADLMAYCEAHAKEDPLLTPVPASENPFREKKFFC

[2] = biological target: T2, M1mAChR (Homo sapiens, UniProt P11229); test: cell-based; conditions: for EC50: CHO-M1 cells, unit inferred, read-out: EC50, Fluo4-AM calcium, printed in Figure 6 panels B-G
T2 sequence (P11229 1-460): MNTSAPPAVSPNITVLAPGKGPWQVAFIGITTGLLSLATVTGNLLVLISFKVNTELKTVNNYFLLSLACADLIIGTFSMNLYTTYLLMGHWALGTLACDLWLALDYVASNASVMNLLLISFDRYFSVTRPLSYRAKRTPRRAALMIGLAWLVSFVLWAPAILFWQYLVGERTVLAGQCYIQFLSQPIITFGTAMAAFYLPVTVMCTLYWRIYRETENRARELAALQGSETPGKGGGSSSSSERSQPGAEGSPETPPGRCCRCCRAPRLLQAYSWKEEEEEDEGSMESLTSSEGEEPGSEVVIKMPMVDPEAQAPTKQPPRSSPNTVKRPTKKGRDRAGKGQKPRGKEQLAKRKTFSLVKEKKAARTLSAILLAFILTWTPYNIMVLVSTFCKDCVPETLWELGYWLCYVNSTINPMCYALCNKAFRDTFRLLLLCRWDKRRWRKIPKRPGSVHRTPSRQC
Experimental: The M1mAChR receptor primarily couples with Gαq, which connects it to several signaling pathways, such as PLC (phospholipase C, PLC), IP3 (inositol triphosphate, IP3), DAG (diacylglycerol, DAG), PKC (protein kinase C, PKC), and calcium signaling. Additionally, the Gαq-PLC signaling pathway plays a role in the activation of cAMP ([…], cAMP) via IP3-calcium release and calmodulin [9].
The influx of intracellular calcium was determined using Fluo4-AM (DOJINDO, Tonomachi, Japan, Cat. No.F311). CHO-M1 cells were seeded on 96-well plates at a density of 40,000 cells/well. The cells were treated with 5 µM of Fluo4-AM in 5 mM of CaCl2 buffer and incubated for 30 min at 37 °C in complete darkness.

[3] = biological target: T1, M1mAChR; test: cell-based
Target sequence in this assay (P32121 whole entry partner, one chain of several): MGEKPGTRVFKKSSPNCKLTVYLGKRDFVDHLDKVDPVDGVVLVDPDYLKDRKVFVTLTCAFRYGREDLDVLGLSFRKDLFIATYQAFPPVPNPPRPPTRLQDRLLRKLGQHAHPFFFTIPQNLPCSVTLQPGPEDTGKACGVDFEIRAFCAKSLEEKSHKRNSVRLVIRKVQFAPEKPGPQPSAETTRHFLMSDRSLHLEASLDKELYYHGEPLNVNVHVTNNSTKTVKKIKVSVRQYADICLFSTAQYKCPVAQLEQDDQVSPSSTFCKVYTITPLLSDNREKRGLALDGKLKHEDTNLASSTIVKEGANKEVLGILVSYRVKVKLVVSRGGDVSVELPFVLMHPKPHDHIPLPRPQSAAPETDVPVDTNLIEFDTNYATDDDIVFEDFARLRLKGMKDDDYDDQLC

[4] = biological target: T2, M1mAChR; test: cell-based; conditions: for EC50: CHO-M1 cells, unit inferred, read-out: EC50, β-arrestin2 recruitment by FRET, printed in Figure 6 panels I-N
Experimental: To further analyze the signaling bias of the agonists, a β-arrestin recruitment kit was utilized based on HTRF (Homogeneous Time Resolved Fluorescence, HTRF) technology. The interaction between native β-arrestin2 and AP2 was detected using a Europium cryptate-labeled AP2 (Adaptin2, AP2) antibody (Europium donor) and a d2-labeled β-arrestin2 antibody (acceptor) (Figure 6H).
We used the β-arrestin2 recruitment KIT test (PerkinElmer, Waltham, MA, USA, Cat. No. 62BDBAR2PEB). Following 24 h of incubation, the cell culture medium was removed, and Stimulation Buffer 4 was added to the negative control group and the blank group, while a diluted agonist was added to the agonist group, at a volume of 100 µL for each group. The plates were then sealed and allowed to incubate at room temperature for 15 min. Then, we removed the Stimulation Buffer 4 from the wells and added 30 µL of Stabilization Buffer 1, sealed the plate, and incubated it at room temperature for 15 min. Afterward, Stabilization Buffer 1 was removed, and the wells were washed three times with 100 µL of Wash Buffer 1. Following that, 100 µL of pre-mixed d2 and Eu cryptate antibodies were added to the wells, and the plates were sealed and incubated overnight at room temperature. Finally, the plates were read using an HTRF-compatible reader.

[5] = biological target: T1, M1mAChR; type: cell-based
Experimental: The kinetic response of the agonists to β-arrestin recruitment was analyzed.
The mean response over 100 s before and after the injection of the antagonist was also analyzed.
(§1) Incubate the cells for another 24 h at 37 °C with 5% CO2 until the cell density reaches 70%~80%. To transfect the cells, use expression constructs (total 0.1 μg/well) with a 1:1:1:1 DNA ratio of M1-RLuc8/Gαq/Gβ2/Gγ2-mVenus, or a 1:2 DNA ratio of M1-RLuc8/β-arrestin2-mVenus, and LipofectamineTM 3000 (0.15 µL/well) reagents (Thermo Scientific, Waltham, MA, USA, Cat. No. R25001). Incubate the cells for another 24 h at 37 °C with 5% CO2. […] Then, add 10 µL of freshly prepared luciferase substrate (here, Coelenterazine h was added at a final concentration of 5 μM, Hangzi Biotechnology, Shanghai, China) and mix the solution.
Target sequence in this assay (P32121 whole entry partner, one chain of several): as above

[6] = system: muscarinic; design: method as in PMID 22948826; conditions: times more potent than ACh; cited from earlier work
[7] = biological target: T2, M1mAChR; type: cell-based; conditions: BRET assays
Experimental: The potencies and efficacies of Gαq and β-arrestin2 were verified using BRET assays, as well as commercial methods, to monitor G protein binding and β-arrestin recruitment (refer to Figure 7). […] The BRET concentration–response curves were analyzed by either conducting normalization to a reference agonist for each experiment or by analyzing them as raw net BRET (fit Emax-fit baseline). The EC50 and Emax values were estimated by fitting all biological replicates simultaneously. […] To estimate the putative signaling bias between the Gαq and β-arrestin pathways, the ΔΔlog(τ/KA) method was used, based on the following equation: bias = 10^ΔΔlog(τ/KA) Gαq−β-arrestin [46], which is derived from the RAi equation [29]. Here, ΔΔlog (τ/KA) Gαq−β-arrestin = Δlog(τ/KA) Gαq − Δlog(τ/KA) β-arrestin. For all statistically analyzed studies, the experiments were performed at least three times independently. The experiments were carried out in a randomized manner. The results are presented as the mean ± SEM. Statistical analysis was performed with a one-way analysis of variance (ANOVA). A value of p < 0.05 was considered statistically significant.

[8] = biological target: T1, M1mAChR; type: cell-based; conditions: Scopolamine 100 μM; agonist 1 μM (Pilocarpine 300 μM); mean response 100 s before vs after antagonist
Experimental: as §1
Target sequence in this assay (P50148 whole entry partner, one chain of several): as the sequence (P50148 whole entry partner, one chain of several) above
Target sequence in this assay (P62879 2-340 partner limits assumed, one chain of several): as the sequence (P62879 2-340 partner limits assumed, one chain of several) above
Target sequence in this assay (P59768 2-68 partner limits assumed, one chain of several): as the sequence (P59768 2-68 partner limits assumed, one chain of several) above

[9] = biological target: T2, M1mAChR; type: cell-based; conditions: calcium assay and commercial β-arrestin recruitment method
[10] = dose-response curve, unit inferred, read-out: EC50, Gαq interaction with M1mAChR (BRET), in Figure 2 panels
[11] = read-out: EC50, Gαq binding to M1mAChR (BRET)
[12] = dose-response curve, unit inferred, read-out: EC50, β-arrestin2 interaction with M1mAChR (BRET), Figure 4
[13] = read-out: EC50, β-arrestin2 binding to M1mAChR (BRET)
[14] = relative intrinsic activity, relative to ACh

C[N+](C)(C)CC#CCOC(=O)Nc1cccc(Cl)c1 [McN-A-343]
EC50 [1, 10]: 11.1 nM | EC50 [1, 11]: 11 nM | EC50 [2]: 718 nM | EC50 [3, 12]: 981 nM | EC50 [3, 13]: 980 nM | EC50 [4]: 1550 nM

C[N+](C)(C)CC#CCOC1=NOCC1 [Iperoxo]
EC50 [1, 10]: 24.8 nM | EC50 [1, 11]: 24.8 nM | Gαq (BRET) (Δlog (τ/KA)) [1, 14]: 1.56 ± 0.090 | decrease of agonist-induced β-arrestin2 BRET response by Atropine [5]: 60% | decrease of agonist-induced β-arrestin2 BRET response by Scopolamine [5]: 54% | potency relative to ACh [6]: approximately 100 times | EC50 [2]: 12.5 nM | Gαq (Fluo4-AM) (Δlog (τ/KA)) [2, 14]: 0.98 ± 0.003 | EC50 [3, 12]: 72 nM | EC50 [3, 13]: 72 nM | β-Arrestin (BRET) (Δlog (τ/KA)) [3, 14]: 1.27 ± 0.020 | EC50 [4]: 646 nM | β-Arrestin (FRET) (Δlog (τ/KA)) [4, 14]: −0.03 ± 0.040 | ∆∆RAi (Gαq − β-arrestin2) [7]: 0.3 | bias factor (Gαq vs β-arrestin2) ([7]; bias = 10^ΔΔlog(τ/KA) Gαq−β-arrestin, relative to ACh): 2 | decrease of agonist-induced Gαq BRET response by Scopolamine [8]: approximately 41% | signaling bias by commercial methods [9]: predominantly biased towards Gαq

From PMC10138654, “Structural Insights into M1 Muscarinic Acetylcholine Receptor Signaling Bias between Gαq and β-Arrestin through BRET Assays and Molecular Docking” (International Journal of Molecular Sciences, 2023)
